In ChEMBL document CHEMBL5506038, “Discovery of LC-MI-3: A Potent and Orally Bioavailable Degrader of Interleukin-1 Receptor-Associated Kinase 4 for the Treatment of Inflammatory Diseases” (J Med Chem, 2024):
Active and inactive are the calls of the source. The calls are words filed in the database; no cut-off is given here.

How the values were obtained:
[1] = Tmax in Sprague-Dawley rat at 20 mg/kg, po by LC-MS/MS analysis; format: ADME, organism-based; conditions: in vivo
[2] = Toxicity in C57BL/6 mouse assessed as lung damage at 20 mg/kg, IG by H and E staining based analysis; format: organism-based; conditions: in vivo, po
Mus musculus [3] = assay: Anti-inflammatory activity in imiquimod-induced C57BL/6 mouse psoriasis model assessed as improvement in swelling at 20 mg/kg, po administered twice daily measured for 6 days; format: functional, organism-based; conditions: time 6.0 day
[4] = target: T1, Protein cereblon/Interleukin-1 receptor-associated kinase 4 (Mus musculus) (UniProt Q8C7D2+Q8R4K2); assay: PROTAC activity at IRAK4/CRBN in mouse RAW264.7 cells assessed as induction of IRAK4 degradation at 25 to 2500 nM incubated for 12 hrs by Western blot analysis; format: cell-based; conditions: dose 25-2500 nM
T1 sequence (Q8C7D2 whole entry, looked up): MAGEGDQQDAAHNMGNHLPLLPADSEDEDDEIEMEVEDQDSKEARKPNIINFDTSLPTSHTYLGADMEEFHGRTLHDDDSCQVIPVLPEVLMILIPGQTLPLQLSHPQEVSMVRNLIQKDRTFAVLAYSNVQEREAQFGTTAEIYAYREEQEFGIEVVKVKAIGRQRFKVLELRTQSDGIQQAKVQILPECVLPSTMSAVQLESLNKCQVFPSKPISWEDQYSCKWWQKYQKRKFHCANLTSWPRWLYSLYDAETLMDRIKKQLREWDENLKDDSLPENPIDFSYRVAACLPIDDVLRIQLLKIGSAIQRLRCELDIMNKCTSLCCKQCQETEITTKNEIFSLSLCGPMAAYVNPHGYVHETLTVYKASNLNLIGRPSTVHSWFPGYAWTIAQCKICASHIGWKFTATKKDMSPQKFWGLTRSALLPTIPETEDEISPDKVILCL
T1 sequence (Q8R4K2 whole entry, looked up): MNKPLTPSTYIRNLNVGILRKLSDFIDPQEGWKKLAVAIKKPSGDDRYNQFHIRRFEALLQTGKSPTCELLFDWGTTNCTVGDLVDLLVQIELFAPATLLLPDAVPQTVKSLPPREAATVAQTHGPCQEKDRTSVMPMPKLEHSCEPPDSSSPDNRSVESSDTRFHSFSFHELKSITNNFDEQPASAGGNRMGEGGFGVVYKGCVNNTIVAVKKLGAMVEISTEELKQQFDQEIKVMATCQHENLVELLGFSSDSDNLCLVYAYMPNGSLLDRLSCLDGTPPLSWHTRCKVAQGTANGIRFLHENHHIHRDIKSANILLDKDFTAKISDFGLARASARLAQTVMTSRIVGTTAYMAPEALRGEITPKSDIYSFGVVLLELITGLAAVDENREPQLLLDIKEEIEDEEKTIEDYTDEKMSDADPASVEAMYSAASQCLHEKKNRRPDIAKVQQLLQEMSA

Mus musculus [5] = assay: Anti-inflammatory activity against LPS-induced acute […] injury C57BL/6 mouse model assessed as reduction in TNF-alpha level in lung at 20 mg/kg, IG pretreated with compound for 12 hrs followed by LPS-induction and measured after 6 hrs by RT-PCR analysis; format: functional, organism-based; conditions: time 18.0 hrs
[6] = target: Zinc finger protein Aiolos (Homo sapiens) (UniProt Q9UKT9); assay: Induction of IKZF3 degradation in human THP-1 cells upto 10000 nM incubated for 12 hrs by Western blotting analysis; format: cell-based
Chain of Zinc finger protein Aiolos (Homo sapiens) (Q9UKT9 whole entry): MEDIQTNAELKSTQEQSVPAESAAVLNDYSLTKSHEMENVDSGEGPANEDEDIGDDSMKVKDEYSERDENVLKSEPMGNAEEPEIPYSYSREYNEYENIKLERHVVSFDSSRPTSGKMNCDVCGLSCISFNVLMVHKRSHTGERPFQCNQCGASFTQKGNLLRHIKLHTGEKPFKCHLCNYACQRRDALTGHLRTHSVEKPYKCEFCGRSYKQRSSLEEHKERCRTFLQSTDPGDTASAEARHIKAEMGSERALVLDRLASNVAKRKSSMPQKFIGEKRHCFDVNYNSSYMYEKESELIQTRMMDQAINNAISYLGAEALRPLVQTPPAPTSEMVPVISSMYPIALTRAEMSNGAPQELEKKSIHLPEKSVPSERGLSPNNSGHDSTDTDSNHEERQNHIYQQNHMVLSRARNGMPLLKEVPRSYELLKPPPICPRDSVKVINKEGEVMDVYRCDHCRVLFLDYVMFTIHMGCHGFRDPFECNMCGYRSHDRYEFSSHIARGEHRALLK

RAW264.7 [7] = assay: Activation of NF-kappaB pathway in LPS-induced mouse RAW264.7 cells expressing EGFP at 5 uM pretreated with compound for 1 hr followed by LPS-induction and measured after 6 hrs by flow cytometry analysis; format: cell-based; conditions: filed as activator, time 7.0 hrs
[8] = Half life in Sprague-Dawley rat at 20 mg/kg, po by LC-MS/MS analysis; format: ADME, organism-based; conditions: in vivo
RAW264.7 [9] = assay: Activation of NF-kappaB pathway in LPS-induced mouse RAW264.7 cells expressing EGFP at 5 uM pretreated with compound for 1 hr followed by LPS-induction and measured at 15 min by flow cytometry analysis; format: cell-based; conditions: filed as activator, time 75.0 min
Mus musculus [10] = assay: Anti-inflammatory activity against LPS-induced acute […] injury C57BL/6 mouse model assessed as reduction in F4/80-positive macrophage in lung at 20 mg/kg, IG pretreated with compound for 12 hrs followed by LPS-induction and measured after 6 hrs by Immunohistochemical analysis; format: functional, organism-based; conditions: time 18.0 hrs
RAW264.7 [11] = assay: Effect on IRAK4 mRNA level in mouse RAW264.7 cells by RT-qPCR analysis; format: functional, cell-based
[12] = target: T2, Interleukin-1 receptor-associated kinase 4 (Homo sapiens) (UniProt Q9NWZ3); assay: Inhibition of IRAK4 in human BMDM cells assessed as decrease in TLR4 endocytosis by flow cytometry analysis; format: cell-based
T2 sequence (whole entry): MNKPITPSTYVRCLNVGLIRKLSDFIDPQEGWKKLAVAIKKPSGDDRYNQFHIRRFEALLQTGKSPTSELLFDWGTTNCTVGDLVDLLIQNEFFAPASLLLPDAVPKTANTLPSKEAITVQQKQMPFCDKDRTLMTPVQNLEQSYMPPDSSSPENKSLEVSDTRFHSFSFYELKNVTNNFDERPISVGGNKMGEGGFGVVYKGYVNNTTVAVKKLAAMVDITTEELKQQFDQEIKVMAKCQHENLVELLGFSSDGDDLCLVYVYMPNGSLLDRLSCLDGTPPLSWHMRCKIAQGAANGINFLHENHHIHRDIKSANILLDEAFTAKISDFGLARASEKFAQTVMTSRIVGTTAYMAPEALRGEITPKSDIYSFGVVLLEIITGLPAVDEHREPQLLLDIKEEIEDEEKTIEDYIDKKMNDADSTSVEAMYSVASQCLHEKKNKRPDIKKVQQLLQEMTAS

[13] = Drug metabolism in rat hepatocyte assessed as mono-hydroxylation mediated metabolite formation by LC-MS/MS analysis; format: ADME, cell-based; conditions: hepatocytes
[14] = target: DNA-binding protein Ikaros (Homo sapiens) (UniProt Q13422); assay: Induction of IKZF1 degradation in human THP-1 cells upto 10000 nM incubated for 12 hrs by Western blotting analysis; format: cell-based
Chain of DNA-binding protein Ikaros (Homo sapiens) (Q13422 whole entry): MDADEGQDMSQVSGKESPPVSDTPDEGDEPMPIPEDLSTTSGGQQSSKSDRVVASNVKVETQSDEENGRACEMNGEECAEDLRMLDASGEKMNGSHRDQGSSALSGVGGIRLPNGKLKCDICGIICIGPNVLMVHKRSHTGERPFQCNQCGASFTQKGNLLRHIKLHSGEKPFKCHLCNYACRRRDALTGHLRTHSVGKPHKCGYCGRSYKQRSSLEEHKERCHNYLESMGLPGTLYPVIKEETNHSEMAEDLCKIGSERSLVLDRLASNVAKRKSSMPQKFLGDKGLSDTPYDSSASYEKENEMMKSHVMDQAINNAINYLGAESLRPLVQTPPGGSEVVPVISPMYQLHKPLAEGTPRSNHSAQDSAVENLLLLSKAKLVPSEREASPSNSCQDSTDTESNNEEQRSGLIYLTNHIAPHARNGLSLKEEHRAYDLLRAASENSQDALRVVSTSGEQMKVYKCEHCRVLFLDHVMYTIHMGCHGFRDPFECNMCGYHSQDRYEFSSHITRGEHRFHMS

[15] = Cmax in Sprague-Dawley rat at 2 mg/kg, iv by LC-MS/MS analysis; format: ADME, organism-based; conditions: in vivo
Mus musculus [16] = assay: Protection against LPS-induced sepsis in C57BL/6 mouse model assessed as improvement in survival rate at 20 mg/kg, IG measured at 12 hrs; format: functional, organism-based
[17] = Oral bioavailability in Sprague-Dawley rat at 20 mg/kg by LC-MS/MS analysis; format: ADME, organism-based; conditions: in vivo
[18] = target: Sal-like protein 4 (Homo sapiens) (UniProt Q9UJQ4); assay: Induction of SALL4 degradation in human THP-1 cells upto 10000 nM incubated for 12 hrs by Western blotting analysis; format: cell-based
Chain of Sal-like protein 4 (Homo sapiens) (Q9UJQ4 whole entry): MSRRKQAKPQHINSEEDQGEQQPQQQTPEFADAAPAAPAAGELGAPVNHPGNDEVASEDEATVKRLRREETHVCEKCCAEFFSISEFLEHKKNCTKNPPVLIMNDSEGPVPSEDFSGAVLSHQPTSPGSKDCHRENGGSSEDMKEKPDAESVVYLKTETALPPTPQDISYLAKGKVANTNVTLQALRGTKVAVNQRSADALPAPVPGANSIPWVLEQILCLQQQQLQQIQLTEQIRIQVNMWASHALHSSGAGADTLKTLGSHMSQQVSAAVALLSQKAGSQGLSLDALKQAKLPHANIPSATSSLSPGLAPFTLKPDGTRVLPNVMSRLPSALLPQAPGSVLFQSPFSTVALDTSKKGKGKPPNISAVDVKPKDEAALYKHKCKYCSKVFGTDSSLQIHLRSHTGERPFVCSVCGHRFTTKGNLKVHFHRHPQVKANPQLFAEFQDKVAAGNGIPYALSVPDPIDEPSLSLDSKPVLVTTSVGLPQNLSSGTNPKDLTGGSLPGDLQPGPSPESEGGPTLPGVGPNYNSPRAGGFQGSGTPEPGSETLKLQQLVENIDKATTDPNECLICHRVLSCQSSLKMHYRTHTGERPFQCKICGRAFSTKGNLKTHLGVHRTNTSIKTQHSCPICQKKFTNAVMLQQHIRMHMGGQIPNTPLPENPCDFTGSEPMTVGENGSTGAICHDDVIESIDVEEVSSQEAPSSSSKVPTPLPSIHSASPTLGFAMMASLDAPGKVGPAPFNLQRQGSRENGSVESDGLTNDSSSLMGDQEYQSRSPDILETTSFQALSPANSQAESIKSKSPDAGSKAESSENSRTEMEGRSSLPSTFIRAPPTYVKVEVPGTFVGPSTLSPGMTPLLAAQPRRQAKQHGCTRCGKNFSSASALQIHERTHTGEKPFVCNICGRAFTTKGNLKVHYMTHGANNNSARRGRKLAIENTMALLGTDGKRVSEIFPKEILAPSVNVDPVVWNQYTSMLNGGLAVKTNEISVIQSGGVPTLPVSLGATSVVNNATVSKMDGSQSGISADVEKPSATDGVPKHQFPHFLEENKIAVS

[19] = Cmax in Sprague-Dawley rat at 20 mg/kg, po by LC-MS/MS analysis; format: ADME, organism-based; conditions: in vivo
RAW264.7 [20] = assay: Protection against Escherichia coli-induced sepsis in mouse RAW264.7 cells assessed as reduction in IL-6 production at 1 uM pretreated with compound for 6 hrs followed by Escherichia coli-induction and measured after 6 hrs by ELISA analysis; format: functional, cell-based; conditions: time 12.0 hrs
[21] = target: T1, Protein cereblon/Interleukin-1 receptor-associated kinase 4 (Mus musculus); assay: PROTAC activity at IRAK4/CRBN in mouse RAW264.7 cells assessed as reduction in IRAK4 level at 100 nM incubated for 12 hrs by Western blot analysis relative to control; format: cell-based
Mus musculus [22] = assay: Anti-inflammatory activity in imiquimod-induced C57BL/6 mouse psoriasis model assessed as reduction in epidermal acanthosis at 20 mg/kg, po administered twice daily measured for 6 days by H and E staining based analysis; format: functional, organism-based; conditions: time 6.0 day
Mus musculus [23] = assay: Anti-inflammatory activity against LPS-induced acute […] injury C57BL/6 mouse model assessed as reduction in IL-6 level in BALF at 20 mg/kg, IG pretreated with compound for 12 hrs followed by LPS-induction and measured after 6 hrs by ELISA analysis; format: functional, organism-based; conditions: time 18.0 hrs

Which Tmax [1] does the source give for `COc1cc(N2CCN(C(=O)CCOCC#Cc3ccc4c(c3)C(=O)N(C3CCC(=O)NC3=O)C4=O)CC2)ccc1NC(=O)c1cccc(-c2ccn[nH]2)n1` (stereo not drawn) here?
The Tmax was 30 min.

What about the Activity [2] of the same compound?
The Activity was “Non-Toxic”.

What about the Activity (Mus musculus [3]) of the same compound?
Its Activity is “Active”.

And the Activity [4]?
Its Activity is “inactive”.

What about the Activity (Mus musculus [5]) of the same compound?
The Activity was “Active”.

What about the Activity [6] of the same compound?
The Activity was “inactive”.

And the Activity (RAW264.7 [7])?
The Activity was “Active”.

And the half-life [8]?
Its half-life is 87.2 min.

And the Activity (RAW264.7 [9])?
Its Activity is “Active”.

What about the Activity (Mus musculus [10]) of the same compound?
The Activity was “Active”.

What about the Activity (RAW264.7 [11]) of the same compound?
The Activity was “inactive”.

And the inhibition [12]?
Its inhibition is “Active”.

And the Drug metabolism [13]?
Its Drug metabolism is “Metabolite_Detected”.

What about the Activity [14] of the same compound?
The Activity was “inactive”.

And the Cmax [15]?
Its Cmax is 2920 ng/mL.

What about the Activity (Mus musculus [16]) of the same compound?
Its Activity is “Active”.

What about the bioavailability [17] of the same compound?
Its bioavailability is 8.15%.

And the Activity [18]?
The Activity was “inactive”.

And the Cmax [19]?
The Cmax was 440 ng/mL.

What about the Activity (RAW264.7 [20]) of the same compound?
The Activity was “Active”.

What about the Emax [21] of the same compound?
Its Emax is 85%.

What about the Activity (Mus musculus [22]) of the same compound?
The Activity was “Active”.

And the Activity (Mus musculus [23])?
The Activity was “Active”.
